# Measured values from patent US20040242700A1 (priority 2001, published 2004).
# Like-named read-outs stand apart in the source and are kept apart here.
# Columns and labels:
# [1] = tested on: mucosal immunoglobulin IgG; type: in vivo, mice
# IFN-γ = type: in vivo, mice
# MPI [2] = type: in vivo, mice; details: administration of ambroxol
# [3] = tested on: mucosal immunoglobulin IgG; type: in vivo, mice; remark: listed apart in the source
# trypsin-type protease [4] = type: in vivo, mice; details: 4th day
# IL-6 = type: in vivo, mice
# MPI [5] = type: in vivo, mice
# SP-A [6] = type: in vivo, mice; details: administration of ambroxol
# [7] = tested on: mucosal immunoglobulin IgA; type: in vivo, mice
# trypsin-type protease [8] = tested on: trypsin-type protease; design: species or system mice; details: mouse, in vivo, ip
# TNF-α = type: in vivo, mice; details: 3rd to 5th day of treatment, not always observed
# [9] = tested on: mucosal immunoglobulin IgA; type: in vivo, mice; remark: listed apart in the source
# IL-12 = type: in vivo, mice
# [10] = tested on: inflammatory cytokines such as TNF-α, IL-2, IL-1, IL-4, IL-13 and IFN-γ; details: literature reports; cited from earlier work
# SP-A [11] = tested on: SP-A; design: species or system mice; details: mouse, in vivo, ip
smiles,measurement,setting,value
"Nc1c(Br)cc(Br)cc1CN[C@H]1CC[C@H](O)CC1 [ambroxol, 2-amino-3,5-dibromo-N-[trans-4-hydroxycyclohexyl] benzyl amine]",IgG concentration relative to the basic concentration of IgG,"[1]; 10 mg/kg/day, 6th day",about 16 times
same,IgG concentration relative to the basic concentration of IgG,"[1]; 30 mg/kg/day, 5th day",~15 times
same,IgG concentration relative to the maximum concentration induced through the viral infection,[1]; treatment with ambroxol,~1.45 times
same,INF-γ,"IFN-γ; 10 mg/kg/day i.p., day 1",9.4 ± 2.4 pg/mL
same,INF-γ,"IFN-γ; 10 mg/kg/day i.p., day 2",9.5 ± 1.8 pg/mL
same,INF-γ,"IFN-γ; 10 mg/kg/day i.p., day 3",2.8 ± 0.9 pg/mL
same,IFN-γ,"IFN-γ; 10 mg/kg/day i.p., day 4",5.3 ± 2.8 pg/mL
same,IFN-γ,"IFN-γ; 10 mg/kg/day i.p., day 5",14.7 ± 5.3 pg/mL
same,IFN-γ,"IFN-γ; 10 mg/kg/day i.p., day 6",39.4 ± 18.6 pg/mL
same,IFN-γ,"IFN-γ; 10 mg/kg/day i.p., day 7",4.0 ± 1.6 pg/mL
same,INF-γ,"IFN-γ; 30 mg/kg/day i.p., day 1",10.4 ± 2.7 pg/mL
same,INF-γ,"IFN-γ; 30 mg/kg/day i.p., day 2",9.8 ± 2.4 pg/mL
same,INF-γ,"IFN-γ; 30 mg/kg/day i.p., day 3",4.0 ± 1.1 pg/mL
same,IFN-γ,"IFN-γ; 30 mg/kg/day i.p., day 4",10.2 ± 5.5 pg/mL
same,IFN-γ,"IFN-γ; 30 mg/kg/day i.p., day 5",32.8 ± 11.1 pg/mL
same,IFN-γ,"IFN-γ; 30 mg/kg/day i.p., day 6",61.8 ± 21.7 pg/mL
same,IFN-γ,"IFN-γ; 30 mg/kg/day i.p., day 7",5.1 ± 1.8 pg/mL
same,effect on INF-γ secretion in BALF,"IFN-γ; 1st day of treatment, not always observed",secretion-inhibitory effects
same,secretion of MPI,MPI [2],lightly promoted
same,IgG concentration relative to the group free of treatment,"[3]; 10 mg/kg/day, 7th day",about 1.2 time
same,IgG concentration relative to the group free of treatment,"[3]; 30 mg/kg/day, 6th day",about 1.2 time
same,IgG concentration relative to the basic concentration,[3]; dose not stated,1.2 times
same,peak trypsin-type protease level relative to un-infected animals,trypsin-type protease [4]; 10 mg/kg/day i.p.,up to 2.2 times
same,peak trypsin-type protease level relative to un-infected animals,trypsin-type protease [4]; 30 mg/kg/day i.p.,≤ 2.4 times
same,IL-6,"IL-6; 10 mg/kg/day i.p., day 1",174.8 ± 35.0 pg/mL
same,IL-6,"IL-6; 10 mg/kg/day i.p., day 2",191.8 ± 51.9 pg/mL
same,IL-6,"IL-6; 10 mg/kg/day i.p., day 3",280.2 ± 54.2 pg/mL
same,IL-6,"IL-6; 10 mg/kg/day i.p., day 4",339.2 ± 57.1 pg/mL
same,IL-6,"IL-6; 10 mg/kg/day i.p., day 5",540.9 ± 84.2 pg/mL
same,IL-6,"IL-6; 10 mg/kg/day i.p., day 6",503.23 ± 61.4 pg/mL
same,IL-6,"IL-6; 10 mg/kg/day i.p., day 7",73.7 ± 14.7 pg/mL
same,IL-6,"IL-6; 30 mg/kg/day i.p., day 1",170.8 ± 28.9 pg/mL
same,IL-6,"IL-6; 30 mg/kg/day i.p., day 2",186.7 ± 19.6 pg/mL
same,IL-6,"IL-6; 30 mg/kg/day i.p., day 3",326.2 ± 44.9 pg/mL
same,IL-6,"IL-6; 30 mg/kg/day i.p., day 4",433.5 ± 101.9 pg/mL
same,IL-6,"IL-6; 30 mg/kg/day i.p., day 5",478.2 ± 86.4 pg/mL
same,IL-6,"IL-6; 30 mg/kg/day i.p., day 6",817.0 ± 168.0 pg/mL
same,IL-6,"IL-6; 30 mg/kg/day i.p., day 7",80.0 ± 17.5 pg/mL
same,effect on the level of IL-6 in BALF,IL-6; 4th and 6th days of treatment,increased
same,MPI concentration relative to that induced by the viral infection,"MPI [5]; […], treatment with ambroxol",1.9 times
same,peak MPI concentration relative to un-infected animals,"MPI [5]; mouse, in vivo",8.4 times
same,day on which the MPI level reached the peak value,"MPI [5]; mouse, in vivo, ip, 10 mg/kg/day",5 days
same,day on which the MPI level reached the maximum value,"MPI [5]; mouse, in vivo, ip, 30 mg/kg/day",4 days
same,secretion of SP-A,SP-A [6],lightly promoted
same,IgA level relative to the basic concentration of IgA,"[7]; 10 mg/kg/day, 7th day",about 600 times
same,IgA level relative to the basic concentration of IgA,"[7]; 30 mg/kg/day, 5th day",~700 times
same,IgA concentration relative to the maximum concentration induced through the viral infection,[7]; treatment with ambroxol,1.5-1.8 times
same,day on which the trypsin-type protease level reached the peak value,trypsin-type protease [8]; 10 mg/kg/day,5 days
same,day on which the trypsin-type protease level reached the peak level,trypsin-type protease [8]; 30 mg/kg/day,4 days
same,effect on TNF-α secretion in BALF,TNF-α,secretion-inhibitory effects
same,IgA concentration relative to the group free of treatment,"[9]; 10 mg/kg/day, 7th day",about 10 times
same,IgA concentration relative to the group free of treatment,"[9]; 30 mg/kg/day, 5th day",about 10 times
same,IgA concentration relative to the basic concentration,[9]; dose not stated,about 10 times
same,IL-12,"IL-12; 10 mg/kg/day i.p., day 1",27.3 ± 7.1 pg/mL
same,IL-12,"IL-12; 10 mg/kg/day i.p., day 2",68.5 ± 12.9 pg/mL
same,IL-12,"IL-12; 10 mg/kg/day i.p., day 3",133.3 ± 17.2 pg/mL
same,IL-12,"IL-12; 10 mg/kg/day i.p., day 4",119.5 ± 15.8 pg/mL
same,IL-12,"IL-12; 10 mg/kg/day i.p., day 5",57.4 ± 16.0 pg/mL
same,IL-12,"IL-12; 10 mg/kg/day i.p., day 6",29.4 ± 6.2 pg/mL
same,IL-12,"IL-12; 10 mg/kg/day i.p., day 7",62.5 ± 27.7 pg/mL
same,IL-12,"IL-12; 30 mg/kg/day i.p., day 1",22.4 ± 4.1 pg/mL
same,IL-12,"IL-12; 30 mg/kg/day i.p., day 2",108.2 ± 33.3 pg/mL
same,IL-12,"IL-12; 30 mg/kg/day i.p., day 3",141.5 ± 15.1 pg/mL
same,IL-12,"IL-12; 30 mg/kg/day i.p., day 4",118.6 ± 11.4 pg/mL
same,IL-12,"IL-12; 30 mg/kg/day i.p., day 5",62.4 ± 13.6 pg/mL
same,IL-12,"IL-12; 30 mg/kg/day i.p., day 6",44.3 ± 29.1 pg/mL
same,IL-12,"IL-12; 30 mg/kg/day i.p., day 7",95.8 ± 52.2 pg/mL
same,"in vitro release of inflammatory cytokines such as TNF-α, IL-2, IL-1, IL-4, IL-13 and IFN-γ",[10],inhibits
same,day on which the SP-A level reached the peak value,SP-A [11]; 10 mg/kg/day,5 days
same,day on which the SP-A level reached the maximum value,SP-A [11]; 30 mg/kg/day,4 days
